Test results: the NIST ThermoML archive (doi:10.1021/je9010568)

Assay: φn = volume fraction of the nth substance listed
Conditions: Liquid

OCCO [1,2-ethanediol] + O
φ1 = 0.75
Conditions | specific volume [m3/kg]
273.15 K, 100 kPa, Vibrating tube method | 0.0009024
274.15 K, 100 kPa, Vibrating tube method | 0.0009029
275.15 K, 100 kPa, Vibrating tube method | 0.0009035
276.15 K, 100 kPa, Vibrating tube method | 0.000904
277.15 K, 100 kPa, Vibrating tube method | 0.0009045
278.15 K, 100 kPa, Vibrating tube method | 0.0009051
279.15 K, 100 kPa, Vibrating tube method | 0.0009056
280.15 K, 100 kPa, Vibrating tube method | 0.0009061
281.15 K, 100 kPa, Vibrating tube method | 0.0009067
282.15 K, 100 kPa, Vibrating tube method | 0.0009072
283.16 K, 100 kPa, Vibrating tube method | 0.0009078
284.16 K, 100 kPa, Vibrating tube method | 0.0009083
285.16 K, 100 kPa, Vibrating tube method | 0.0009088
286.16 K, 100 kPa, Vibrating tube method | 0.0009094
287.16 K, 100 kPa, Vibrating tube method | 0.0009099
288.09 K, 100 kPa, Vibrating tube method | 0.0009104
288.09 K, 148600 kPa, Bellows volumetry | 0.0008753
288.1 K, 98200 kPa, Bellows volumetry | 0.0008859
288.11 K, 100 kPa, Vibrating tube method | 0.0009104
288.11 K, 49700 kPa, Bellows volumetry | 0.0008965
288.12 K, 98200 kPa, Bellows volumetry | 0.0008844
288.13 K, 100 kPa, Vibrating tube method | 0.0009105
288.13 K, 49400 kPa, Bellows volumetry | 0.0008974
288.13 K, 349300 kPa, Bellows volumetry | 0.0008385
288.14 K, 149800 kPa, Bellows volumetry | 0.0008734
288.14 K, 199000 kPa, Bellows volumetry | 0.0008635
288.15 K, 199100 kPa, Bellows volumetry | 0.0008654
288.16 K, 100 kPa, Vibrating tube method | 0.0009105
288.16 K, 248700 kPa, Bellows volumetry | 0.0008558
288.17 K, 299900 kPa, Bellows volumetry | 0.0008461
288.19 K, 250600 kPa, Bellows volumetry | 0.0008544
288.29 K, 299600 kPa, Bellows volumetry | 0.0008463
288.31 K, 199200 kPa, Bellows volumetry | 0.0008639
288.31 K, 350200 kPa, Bellows volumetry | 0.0008386
288.32 K, 251000 kPa, Bellows volumetry | 0.0008545
288.33 K, 49300 kPa, Bellows volumetry | 0.0008968
288.33 K, 149300 kPa, Bellows volumetry | 0.0008737
288.33 K, 300300 kPa, Bellows volumetry | 0.0008464
288.33 K, 348300 kPa, Bellows volumetry | 0.0008391
288.36 K, 100900 kPa, Bellows volumetry | 0.0008842
289.16 K, 100 kPa, Vibrating tube method | 0.000911
290.16 K, 100 kPa, Vibrating tube method | 0.0009116
291.16 K, 100 kPa, Vibrating tube method | 0.0009121
292.15 K, 100 kPa, Vibrating tube method | 0.0009127
293.15 K, 100 kPa, Vibrating tube method | 0.0009132
294.15 K, 100 kPa, Vibrating tube method | 0.0009138
295.16 K, 100 kPa, Vibrating tube method | 0.0009143
296.16 K, 100 kPa, Vibrating tube method | 0.0009149
297.15 K, 100 kPa, Vibrating tube method | 0.0009155
298.15 K, 100 kPa, Vibrating tube method | 0.000916
299.15 K, 100 kPa, Vibrating tube method | 0.0009166
300.16 K, 100 kPa, Vibrating tube method | 0.0009172
301.16 K, 100 kPa, Vibrating tube method | 0.0009177
302.16 K, 100 kPa, Vibrating tube method | 0.0009183
303.16 K, 100 kPa, Vibrating tube method | 0.0009189
304.16 K, 100 kPa, Vibrating tube method | 0.0009195
305.16 K, 100 kPa, Vibrating tube method | 0.00092
306.16 K, 100 kPa, Vibrating tube method | 0.0009206
307.15 K, 100 kPa, Vibrating tube method | 0.0009212
308.15 K, 100 kPa, Vibrating tube method | 0.0009218
309.15 K, 100 kPa, Vibrating tube method | 0.0009223
310.15 K, 100 kPa, Vibrating tube method | 0.0009229
311.15 K, 100 kPa, Vibrating tube method | 0.0009235
312.15 K, 100 kPa, Vibrating tube method | 0.0009241
313.15 K, 100 kPa, Vibrating tube method | 0.0009247

CC(O)CO (centres undefined) [1,2-propanediol] + O
φ1 = 0.55
Conditions | specific volume [m3/kg]
273.15 K, 100 kPa, Vibrating tube method | 0.0009499
274.15 K, 100 kPa, Vibrating tube method | 0.0009505
275.15 K, 100 kPa, Vibrating tube method | 0.000951
276.15 K, 100 kPa, Vibrating tube method | 0.0009516
277.15 K, 100 kPa, Vibrating tube method | 0.0009521
278.15 K, 100 kPa, Vibrating tube method | 0.0009527
279.15 K, 100 kPa, Vibrating tube method | 0.0009533
280.15 K, 100 kPa, Vibrating tube method | 0.0009539
281.15 K, 100 kPa, Vibrating tube method | 0.0009544
282.15 K, 100 kPa, Vibrating tube method | 0.000955
283.15 K, 100 kPa, Vibrating tube method | 0.0009556
284.15 K, 100 kPa, Vibrating tube method | 0.0009562
285.16 K, 100 kPa, Vibrating tube method | 0.0009568
286.16 K, 100 kPa, Vibrating tube method | 0.0009574
287.16 K, 100 kPa, Vibrating tube method | 0.0009579
287.99 K, 198800 kPa, Bellows volumetry | 0.0009078
288 K, 100100 kPa, Bellows volumetry | 0.0009305
288.03 K, 49500 kPa, Bellows volumetry | 0.0009439
288.04 K, 148900 kPa, Bellows volumetry | 0.0009188
288.11 K, 248600 kPa, Bellows volumetry | 0.0008977
288.11 K, 298400 kPa, Bellows volumetry | 0.0008885
288.12 K, 49600 kPa, Bellows volumetry | 0.0009432
288.12 K, 198700 kPa, Bellows volumetry | 0.000907
288.12 K, 348400 kPa, Bellows volumetry | 0.0008794
288.13 K, 100 kPa, Vibrating tube method | 0.0009585
288.13 K, 98100 kPa, Bellows volumetry | 0.0009301
288.13 K, 148600 kPa, Bellows volumetry | 0.0009182
288.16 K, 100 kPa, Vibrating tube method | 0.0009585
288.22 K, 249300 kPa, Bellows volumetry | 0.000897
288.3 K, 100900 kPa, Bellows volumetry | 0.0009295
288.31 K, 149300 kPa, Bellows volumetry | 0.0009178
288.31 K, 201100 kPa, Bellows volumetry | 0.0009066
288.31 K, 300500 kPa, Bellows volumetry | 0.0008875
288.31 K, 348700 kPa, Bellows volumetry | 0.0008793
288.32 K, 100 kPa, Vibrating tube method | 0.0009586
288.33 K, 49800 kPa, Bellows volumetry | 0.0009434
288.33 K, 249400 kPa, Bellows volumetry | 0.0008969
288.35 K, 350000 kPa, Bellows volumetry | 0.0008796
288.36 K, 299200 kPa, Bellows volumetry | 0.0008882
289.16 K, 100 kPa, Vibrating tube method | 0.0009591
290.16 K, 100 kPa, Vibrating tube method | 0.0009597
291.15 K, 100 kPa, Vibrating tube method | 0.0009603
292.15 K, 100 kPa, Vibrating tube method | 0.000961
293.15 K, 100 kPa, Vibrating tube method | 0.0009616
294.15 K, 100 kPa, Vibrating tube method | 0.0009622
295.15 K, 100 kPa, Vibrating tube method | 0.0009628
296.16 K, 100 kPa, Vibrating tube method | 0.0009634
297.16 K, 100 kPa, Vibrating tube method | 0.0009641
298.16 K, 100 kPa, Vibrating tube method | 0.0009647
299.16 K, 100 kPa, Vibrating tube method | 0.0009653
300.16 K, 100 kPa, Vibrating tube method | 0.000966
301.16 K, 100 kPa, Vibrating tube method | 0.0009666
302.16 K, 100 kPa, Vibrating tube method | 0.0009673
303.16 K, 100 kPa, Vibrating tube method | 0.0009679
304.16 K, 100 kPa, Vibrating tube method | 0.0009685
305.16 K, 100 kPa, Vibrating tube method | 0.0009692
306.16 K, 100 kPa, Vibrating tube method | 0.0009699
307.15 K, 100 kPa, Vibrating tube method | 0.0009705
308.15 K, 100 kPa, Vibrating tube method | 0.0009712
309.15 K, 100 kPa, Vibrating tube method | 0.0009719
310.15 K, 100 kPa, Vibrating tube method | 0.0009725
311.15 K, 100 kPa, Vibrating tube method | 0.0009732
312.15 K, 100 kPa, Vibrating tube method | 0.0009739
313.15 K, 100 kPa, Vibrating tube method | 0.0009746
